Legend:
FLAG-NR0B1 (WT) = molecular target: T1, FLAG-NR0B1 (WT) (Homo sapiens, UniProt P51843); assay: Gel-based BPK-29yne labeling of NR0B1 and competition in HEK293T cells; assay type: cell-based; details: 3 h pre-treatment, then BPK-29yne 30 min
T1 construct: expressed in transfected cells; host or cells: HEK-293T, transient, pRK5-based vector
Description: 4×10^6 HEK-293T cells were seeded in poly-L-lysine coated 10 cm plates and transfected the next day with 5 μg of FLAG-NR0B1, FLAG-NR0B1-C274V, or FLAG-METAP2 cDNA in a pRK5-based expression vector. 48 h after transfection, cells were treated with indicated concentrations of BPK-29 or control compound BPK-27 for 3 h at 37° C. in DMEM containing 10% FBS and supplements as described in Cell Culture. BPK-29yne (5 μM) was then added and incubated for an additional 30 min at 37° C. FLAG immunoprecipitates were prepared as described above and following washes, the FLAG resin was resuspended in PBS (100 μL). To each sample, 12 μL of a freshly prepared “click” reagent mixture was added to conjugate the fluorophore to probe-labeled proteins. […] Samples were boiled for 5 min and proteins were resolved by SDS-PAGE (10% acrylamide), and visualized by in-gel fluorescence on a Bio-Rad ChemiDoc MP flatbed fluorescence scanner. Samples were also analyzed by immunoblotting. Recombinantly expressed FLAG-tagged protein levels were determined with the FLAG antibody (Sigma). Gel fluorescence and imaging was processed using Image Lab (v 5.2.1) software.

TXNRD1 = molecular target: T2, TXNRD1 (Homo sapiens, UniProt Q16881); assay: isoTOP-ABPP of compound-treated H460 cells: TXNRD1; assay type: cell-based; details: TXNRD1 U648; 40 μM
T2 construct: endogenous in cells; host or cells: H460
Description: For analysis of NR0B1 ligands or control compound reactivity, H460 cells or H460 cells expressing luciferase in a 10 cm plate were incubated with indicated compounds in serum/dye-free RPMI for 3 hours at 37° C. Cells were washed once ice-cold PBS and lysed in 1% Triton X-100 dissolved in PBS with protease inhibitors (Sigma) by sonication. Samples were clarified by centrifugation for 10 min at 16,000×g. Lysate was adjusted to 1.5 mg ml^−1 in 500 μL.
Samples were labeled for 1 h at ambient temperature with 100 μM iodoacetamide alkyne (1, IA-alkyne, 5 μL of 10 mM stock in DMSO). Samples were conjugated by copper-catalyzed azide-alkyne cycloaddition (CuAAC) to isotopically labeled, TEV-cleavable tags (TEV-tags). Heavy CuAAC reaction mixtures was added to the DMSO-treated or shGFP control samples and light CuAAC reaction mixture was added to compound-treated or shNRF2 samples. The CuAAC reaction mixture consisted of TEV tags (light or heavy, 10 μL of 5 mM stocks in DMSO, final concentration=100 μM), 1 mM tris(2-carboxyethyl)phosphine hydrochloride (TCEP; fresh 50× stock in water, final concentration=1 mM), ligand (17× stock in DMSO:t-butanol 1:4, final concentration=100 μM) and 1 mM CuSO4 (50× stock in water, final concentration=1 mM). The samples were allowed to react for 1 h at which point the samples were centrifuged (16,000×g, 5 min, 4° C.). […]

T1 sequence (P51843 whole entry): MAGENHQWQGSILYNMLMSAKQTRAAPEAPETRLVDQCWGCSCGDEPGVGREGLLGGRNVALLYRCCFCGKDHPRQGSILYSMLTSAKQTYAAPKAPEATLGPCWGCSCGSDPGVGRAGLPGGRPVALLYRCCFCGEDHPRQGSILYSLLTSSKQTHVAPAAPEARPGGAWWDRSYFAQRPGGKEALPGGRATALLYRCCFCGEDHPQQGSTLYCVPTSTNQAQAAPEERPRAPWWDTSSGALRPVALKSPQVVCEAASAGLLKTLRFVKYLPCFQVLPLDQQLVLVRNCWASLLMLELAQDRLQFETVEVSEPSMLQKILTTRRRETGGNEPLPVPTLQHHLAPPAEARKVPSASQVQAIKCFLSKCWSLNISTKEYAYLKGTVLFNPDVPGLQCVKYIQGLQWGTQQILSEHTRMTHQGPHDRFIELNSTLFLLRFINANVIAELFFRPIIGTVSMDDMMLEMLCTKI
T2 sequence (Q16881 whole entry): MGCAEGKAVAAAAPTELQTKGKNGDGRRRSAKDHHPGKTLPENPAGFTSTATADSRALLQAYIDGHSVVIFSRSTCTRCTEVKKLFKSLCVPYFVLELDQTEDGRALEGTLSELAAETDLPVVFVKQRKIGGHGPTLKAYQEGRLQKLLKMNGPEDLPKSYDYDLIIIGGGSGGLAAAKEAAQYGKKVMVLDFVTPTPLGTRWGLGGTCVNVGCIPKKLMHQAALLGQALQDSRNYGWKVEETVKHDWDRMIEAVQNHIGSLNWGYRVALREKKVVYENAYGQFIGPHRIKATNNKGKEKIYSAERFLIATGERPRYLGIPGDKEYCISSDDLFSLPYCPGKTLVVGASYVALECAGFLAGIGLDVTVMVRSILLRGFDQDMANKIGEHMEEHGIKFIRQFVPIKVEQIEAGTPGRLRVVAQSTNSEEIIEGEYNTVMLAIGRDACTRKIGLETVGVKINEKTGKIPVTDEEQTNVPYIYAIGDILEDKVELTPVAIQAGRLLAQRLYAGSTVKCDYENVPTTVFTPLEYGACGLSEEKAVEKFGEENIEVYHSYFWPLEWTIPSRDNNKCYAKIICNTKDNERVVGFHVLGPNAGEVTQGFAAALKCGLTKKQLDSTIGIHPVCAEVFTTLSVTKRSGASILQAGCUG

Q: What does the source list for `O=C(c1ccc(N2CCOCC2)cc1)N1CCCC(N(Cc2ccccc2)C(=O)CCl)CC1` (centres unmarked) [BPK-29, N-benzyl-2-chloro-N-(1-(4-morpholinobenzoyl)azepan-4-yl)acetamide]?
A: blockade of BPK-29yne labeling of NR0B1 by pre-treatment (FLAG-NR0B1 (WT)): blocked by pre-treatment with BPK-29 in a concentration dependent manner; BPK-29-competed isoTOP-ABPP analysis (TXNRD1): Yes (Competed defined as showing R value ≥ 3.0 at 40 μM of test compound)

Source: US20200278355A1, “CONJUGATED PROTEINS AND USES THEREOF” (THE SCRIPPS RESEARCH INSTITUTE, priority 2017, published 2020)
